# Test results from ChEMBL document CHEMBL5113381, “Large-Scale Screening of Antifungal Peptides Based on Quantitative Structure-Activity Relationship” (2022).
# Peptide text beside a SMILES is read from it.
# Legend:
# Format in all cases: functional
# [1] = system: Candida albicans; test: Antifungal activity against Candida albicans SC5314 measured after 24 to 48 hrs by CLSI method; settings: time 24-48 hrs
# [2] = system: Candida parapsilosis; test: Antifungal activity against Candida parapsilosis ATCC 22019 measured after 24 to 48 hrs by CLSI method; settings: Lodderomyces parapsilosis, time 24-48 hrs
# [3] = system: Cryptococcus neoformans; test: Antifungal activity against Cryptococcus neoformans H99 measured after 24 to 48 hrs by CLSI method; settings: time 24-48 hrs
# [4] = system: Pichia kudriavzevii; test: Antifungal activity against Candida krusei IFM56881 measured after 24 to 48 hrs by CLSI method; settings: time 24-48 hrs
MIC [1],MIC [2],MIC [3],MIC [4],Structure (SMILES)
4.07 µM,1.02 µM,1.02 µM,4.07 µM,CC(C)[C@H](NC(=O)[C@H](CCCNC(=N)N)NC(=O)[C@H](Cc1ccccc1)NC(=O)[C@H](CS)NC(=O)[C@H](Cc1c[nH]c2ccccc12)NC(=O)[C@H](CCCNC(=N)N)NC(=O)[C@@H](N)CCCNC(=N)N)C(=O)N[C@@H](CS)C(=O)N[C@@H](Cc1ccc(O)cc1)C(=O)N[C@@H](CCCNC(=N)N)C(=O)NCC(=O)N[C@@H](Cc1ccccc1)C(=O)N[C@@H](CS)C(=O)N[C@@H](Cc1ccc(O)cc1)C(=O)N[C@@H](CCCNC(=N)N)C(=O)N[C@@H](CCCCN)C(=O)N[C@@H](CS)C(=O)N[C@@H](CCCNC(=N)N)C(=O)O (H-RRWCFRVCYRGFCYRKCR-OH)
77.9 µM,77.9 µM,38.9 µM,19.5 µM,CC[C@H](C)[C@H](NC(=O)[C@H](C)NC(=O)[C@H](CS)NC(=O)[C@H](CO)NC(=O)[C@@H](NC(=O)[C@H](Cc1ccccc1)NC(=O)[C@@H](N)Cc1ccc(O)cc1)[C@@H](C)CC)C(=O)N[C@@H](Cc1cnc[nH]1)C(=O)N[C@@H](Cc1ccccc1)C(=O)N[C@@H](CCCCN)C(=O)N[C@H](C(=O)N[C@@H](CC(C)C)C(=O)N[C@@H](CCCCN)C(=O)N[C@H](C(=O)N[C@@H](CCCNC(=N)N)C(=O)N[C@@H](CO)C(=O)N[C@@H](C)C(=O)N[C@@H](C)C(=O)N[C@@H](CCCCN)C(=O)N[C@@H](CCCNC(=N)N)C(=O)N[C@@H](CCCNC(=N)N)C(=O)N[C@@H](CCC(=O)O)C(=O)N[C@@H](Cc1cnc[nH]1)C(=O)N[C@H](C(=O)N[C@@H](CCCCN)C(=O)N[C@@H](CC(C)C)C(=O)N[C@@H](CCCNC(=N)N)C(=O)O)[C@@H](C)O)[C@@H](C)CC)[C@@H](C)CC (H-YFISCAIHFKILKIRSAAKRREHTKLR-OH)
28.1 µM,14 µM,7.02 µM,7.02 µM,CC[C@H](C)[C@H](NC(=O)[C@H](Cc1cnc[nH]1)NC(=O)[C@H](C)NC(=O)[C@H](CC(C)C)NC(=O)[C@H](CC(C)C)NC(=O)[C@H](CCCCN)NC(=O)[C@H](CCSC)NC(=O)[C@@H](NC(=O)[C@@H](NC(=O)[C@H](Cc1cnc[nH]1)NC(=O)[C@H](Cc1c[nH]c2ccccc12)NC(=O)[C@@H](NC(=O)[C@H](CCCCN)NC(=O)[C@H](Cc1cnc[nH]1)NC(=O)[C@@H](NC(=O)[C@H](CCCCN)NC(=O)[C@H](Cc1cnc[nH]1)NC(=O)[C@@H](N)Cc1ccc(O)cc1)[C@@H](C)CC)C(C)C)[C@@H](C)CC)[C@@H](C)CC)C(=O)O (H-YHKIHKVWHIIMKLLAHI-OH)
> 95 µM,> 95 µM,> 95 µM,> 95 µM,CC[C@H](C)[C@H](NC(=O)[C@H](CCCNC(=N)N)NC(=O)CNC(=O)[C@H](CC(C)C)NC(=O)[C@H](Cc1ccccc1)NC(=O)[C@H](CCC(N)=O)NC(=O)[C@H](Cc1ccccc1)NC(=O)[C@@H](N)C(C)C)C(=O)N[C@H](C(=O)N[C@@H](Cc1cnc[nH]1)C(=O)N[C@@H](Cc1cnc[nH]1)C(=O)N[C@H](C(=O)NCC(=O)N[C@@H](CC(N)=O)C(=O)N[C@@H](Cc1ccccc1)C(=O)N[C@H](C(=O)N[C@@H](Cc1cnc[nH]1)C(=O)NCC(=O)N[C@@H](Cc1ccccc1)C(=O)N[C@@H](CO)C(=O)N[C@@H](Cc1cnc[nH]1)C(=O)N[C@H](C(=O)N[C@@H](Cc1ccccc1)C(=O)O)C(C)C)C(C)C)C(C)C)[C@@H](C)CC [Clavanin B] (H-VFQFLGRIIHHVGNFVHGFSHVF-OH)
